Results: US20240156790A1, “COMPOUNDS, COMPOSITIONS, AND METHODS FOR MODULATING FERROPTOSIS AND TREATING EXCITOTOXIC DISORDERS” (THE TRUSTEES OF COLUMBIA UNIVERSITY IN THE CITY OF NEW YORK, priority 2018, published 2024)
Entries after “also recorded” stand apart in the source; their conditions may differ. Read-outs that look alike come from different tables or passages of the source.

Assay: TH-2-31, TH-4-55-2, TH-4-67 PK Study (IP, IV, PO; plasma and brain)
Assay type: in vivo, C57BL/6 mice
Conditions: for Cmax brain (nM) / concentration in brain following IV administration (rapid accumulation) / half-life / concentration at 24 h / Cmax: 20 mg/kg; for half-life / concentration at 24 h / Cmax: both sexes, C57BL/6, mouse; for half-life: read-out: in vivo brain t1/2; for brain penetrance / accumulation in brain over plasma, in words: mouse, in vivo; for stability / accumulation in plasma in vivo, in words: up to 24 hours
Description: C57BL/6 mice (8-weeks of age and ˜25 g weight) were weighed before injection and divided into groups of two male and female mice per cage. Compound was dissolved in 5% DMSO/95% of 1:1 [(65% v/v of 25% w/v 2-hydroxypropyl-3-cyclodextrin (Cayman Chemical) dissolved in 20% EtOH, 30% v/v Poly(ethylene glycol)-400 (Sigma Aldrich 202398), 5% v/v Tween 80 (Fluka 59924)):MilliQ water] to create a 2 mg/mL solution. The same formulation without compound was used as a vehicle control. The solution was sterilized using a […] Steriflip filter unit (Thomas Scientific 1189Q46). Mice were dosed IP, IV, and PO routes of administration and euthanized by CO2 asphyxiation for 3 min at 0, 1, 2, 4, 8, and 24 h after administration. To ensure that the vehicle was well-tolerated 4 mice were treated with vehicle and euthanized 4 h after administration. ˜0.5 mL of blood was collected via cardiac puncture and immediately put in K3 EDTA microtubes ([…] 41.1504.105) and kept on ice. Organs were harvested, placed in Eppendorf tubes, and frozen on dry ice. Blood samples were centrifuged for 10 min at 2,100×g at 4° C., then plasma was transferred to a clean tube and frozen on dry ice. Organ samples were weighed and placed in hard tissue homogenizing tubes (Omni International 19-628) and a volume of DEPC-treated nuclease-free water (IBI Scientific IB42200) was added to make a 500 mg/mL solution and homogenized using the Omni Bead Ruptor 4 at speed 5 for 30 seconds. Compound was extracted from plasma or organ homogenate by adding 900 μL acetonitrile to 100 μL plasma or organ homogenate. Samples were mixed by vortexing and allowed to extract overnight at 4° C. prior to mixing for at least 5 min by rotating at room temperature, vortexing, and sonicating for at least 30 second prior to centrifugation for 10 min at 4,000×g and 4° C. The supernatant was then transferred to a glass vial and analyzed by UPLC-MS described below. The concentration of each analog was determined against a standard curve with a nonlinear fit and the data plot in GraphPad Prism 9 and fit with a one phase decay.
Samples from animal studies were analyzed via UPLC-MS using a Waters Xevo G2-Xs QTof Mass spectrometer equipped with an Acquity UPLC. Chromatographic separation was carried out at 50° C. on a Acquity UPLC BEH C18 column (1.7 μm, 2.1 mm×50 mm, pore size 130 Å) over a 4.5 min gradient elution. The flowrate was held constant at 0.8 mL/min. Mobile phase A consisted of water and mobile phase B consisted of ACN both containing 0.1% formic acid. After injection, the gradient was held at 50% A for 0.25 min. For the next minute, the gradient was ramped in a linear fashion to 100% B and held at this composition for 0.5 min. The eluent composition returned to the initial condition in 0.01 min and the column was re-equilibrated for 2.74 min before the next injection. Injection volumes were 0.5 μL (TH-2-31 40 mg/kg) and 1 μL for all other conditions. The Xevo G2-Xs was operated in positive electrospray ionization (ESI) mode. A capillary voltage and sampling cone voltage of 0.5 kV and 30 V were used. The source and desolvation temperatures were kept at 120° C. and […], respectively. Nitrogen was used as the desolvation gas with a flowrate of 750 L/hr. The protonated molecular ion of leucine encephalin ([M+H]^+, m/z 556.2771 was used as a lock mass for mass accuracy and reproducibility. Leucine enkephalin was introduced to the lock mass at a concentration of 2 ng/mL (50% ACN containing 0.1% formic acid), and a flow rate of […]. To avoid signal saturation, the signal transmission was attenuated to <10%, based off the signal intensity of the highest standard concentration for the duration of the run. The data was collected over the mass range m/z 50 to 1200 Da with an acquisition time of 0.1 seconds per scan. The retention time for each analog is detailed below. […]

[1] = plasma, all routes of administration, read-out: concentration in plasma 24 hours after administration

SMILES | Cmax brain/ IC50 (IP) | Cmax brain (nM) (IP) | Cmax brain/ IC50 (IV) | Cmax brain (nM) (IV) | concentration in brain following IV administration (rapid accumulation) (IV) | Cmax brain/ IC50 (PO) | Cmax brain (nM) (PO) | half-life (brain, ip, R.O.A. IP) [h] | half-life (brain, iv, R.O.A. IV) [h] | half-life (brain, po, R.O.A. PO) [h] | Cmax (plasma, ip) [µM] | Cmax (plasma, iv) [µM] | Cmax (plasma, po) [µM] | concentration at 24 h [1] [µM] | brain penetrance / accumulation in brain over plasma, in words | stability / accumulation in plasma in vivo, in words | also measured
CCC(CC)Nc1cc(-c2nc(C)no2)cnc1NC1CCCCC1 [TH-4-55-2, N^2-cyclohexyl-5-(3-methyl-1,2,4-oxadiazol-5-yl)-N^3-(pentan-3-yl)pyridine-2,3-diamine] | 1,765 | 3,936 nM | 35,567 | 79,314 nM | > 75 µM | 632 | 1,410 nM | > 8 | < 1 | > 24 | 63.8 | 32.1 | 2.93 | > 0.8 | preferentially accumulate in brain over plasma for all time-points following IV administration | accumulated the most | time present in plasma at μM concentrations (all routes of administration): up to 8 hours; concentration at 24 h (brain, other: IP and PO, IP and PO administration, read-out: concentration in brain 24 hours post administration): > 1 µM
Cc1noc(-c2cnc(NC3CCCCC3)c(NC3CCCCC3)c2)n1 [TH-2-31, N^2,N^3-dicyclohexyl-5-(3-methyl-1,2,4-oxadiazol-5-yl)pyridine-2,3-diamine] | 633 | 2,133 nM | 99,335 | 334,759 nM | greater than 300 μM | 353 | 1,190 nM | > 8 | < 1 | > 24 | 50.9 | 25.8 | 2.24 | > 0.5 | preferentially accumulate in brain over plasma for all time-points following IV administration |  | concentration at 24 h (brain, iv, read-out: concentration in brain 24 hours after administration): 10 µM
Cc1noc(-c2cnc(NC3CCCC3)c(NC3CCCC3)c2)n1 [TH-4-67, N^2,N^3-dicyclopentyl-5-(3-methyl-1,2,4-oxadiazol-5-yl)pyridine-2,3-diamine] | 1,389 | 2,916 nM | 24,820 | 52,121 nM | > 50 µM | 740 | 1,554 nM |  | < 1 |  | 82.1 | 40.6 | 1.77 | < 0.025 |  | accumulated the least; also recorded: the least stable | time present in plasma at μM concentrations (IP administration): up to 2 hours; time present in plasma at μM concentrations (PO and IV administration): up to 1 hour; concentration at 24 h (brain, all routes of administration, read-out: concentration in brain 24 hours post administration): < 0.2 µM
